Each structure is given as a SMILES string. Numbers after ± are expanded uncertainties.

For 38 compounds, activity coefficient results are on record in the NIST ThermoML archive (doi:10.1021/je050544m).

The data set in a line: activity coefficient (dimensionless); of the first substance listed, at infinite dilution; xn = mol fraction of the nth substance listed. To be noted: 101 kPa, Liquid, Chromatography, x1 = 0.

On to `CCCCCCC` [heptane] + CCCCCCn1cc[n+](C)c1.F[B-](F)(F)F, for which the activity coefficient is, setting by setting: (303 K) 47.7 ± 5; (323 K) 39.9 ± 4.2; (343 K) 33.6 ± 3.5.
Turning to `CCCCCCC` [heptane] + CCCCn1cc[n+](C)c1.F[B-](F)(F)F, the activity coefficient is, setting by setting: (303 K) 134 ± 14; (323 K) 115 ± 12; (343 K) 99 ± 10.
In the case of `CCCCCCC` [heptane] + CCn1cc[n+](C)c1.F[B-](F)(F)F, the activity coefficient turned out to be 202 ± 21 (303 K), 173 ± 18 (323 K) and 139 ± 15 (343 K).
Taken in the same sequence, the figures for `C=CCCCC` [hex-1-ene] + CCCCCCCC[n+]1ccn(C)c1.F[B-](F)(F)F were 7.92 ± 0.83, 7.51 ± 0.79 and 7.42 ± 0.78.
Taken in the same sequence, the figures for `C=CCCCC` [hex-1-ene] + CCCCCCn1cc[n+](C)c1.F[B-](F)(F)F were 15.9 ± 1.7, 14.8 ± 1.6 and 14.8 ± 1.6.
Taken in the same sequence, the figures for `C=CCCCC` [hex-1-ene] + CCCCn1cc[n+](C)c1.F[B-](F)(F)F were 35.4 ± 3.7, 32.2 ± 3.4 and 30.5 ± 3.2.
Regarding `C=CCCCC` [hex-1-ene] + CCn1cc[n+](C)c1.F[B-](F)(F)F, the activity coefficient (303 K) was determined as 46.2 ± 4.9, the activity coefficient (323 K) is 43.2 ± 4.5 and the activity coefficient (343 K) was 36.6 ± 3.9.
In the case of `CCCCCC` [hexane] + CCCCCCCC[n+]1ccn(C)c1.F[B-](F)(F)F, the activity coefficient reads like this: (303 K) 13.2 ± 1.4; (323 K) 12.8 ± 1.4; (343 K) 12.2 ± 1.3.
Turning to `CCCCCC` [hexane] + CCCCCCn1cc[n+](C)c1.F[B-](F)(F)F, the activity coefficient is, setting by setting: (303 K) 34.8 ± 3.7; (323 K) 29.6 ± 3.1; (343 K) 26.1 ± 2.7.
Taken in the same sequence, the figures for `CCCCCC` [hexane] + CCCCn1cc[n+](C)c1.F[B-](F)(F)F were 93.4 ± 9.8, 76.5 ± 8.1 and 67.5 ± 7.1.
In the case of `CCCCCC` [hexane] + CCn1cc[n+](C)c1.F[B-](F)(F)F, the activity coefficient (303 K) amounted to 125 ± 13, the activity coefficient (323 K) was determined as 113 ± 12 and the activity coefficient (343 K) was 64.8 ± 6.8.
`CO` [methanol] + CCCCCCCC[n+]1ccn(C)c1.F[B-](F)(F)F: the activity coefficient by setting is: (303 K) 1.09 ± 0.11; (323 K) 0.94 ± 0.1; (343 K) 0.85 ± 0.09.
With `CO` [methanol] + CCCCCCn1cc[n+](C)c1.F[B-](F)(F)F, the activity coefficient by setting is: (303 K) 1.19 ± 0.12; (323 K) 1.08 ± 0.11; (343 K) 0.99 ± 0.1.
Turning to `CO` [methanol] + CCCCn1cc[n+](C)c1.F[B-](F)(F)F, the activity coefficient by setting is: (303 K) 1.32 ± 0.14; (323 K) 1.21 ± 0.12; (343 K) 1.07 ± 0.11.
Taken in the same sequence, the figures for `CO` [methanol] + CCn1cc[n+](C)c1.F[B-](F)(F)F were 0.43 ± 0.05, 0.43 ± 0.05 and 0.42 ± 0.05.
Turning to `CCCO` [propan-1-ol] + CCCCCCCC[n+]1ccn(C)c1.F[B-](F)(F)F, the activity coefficient reads like this: (323 K) 1.44 ± 0.15; (343 K) 1.27 ± 0.13.
Taken in the same sequence, the figures for `CCCO` [propan-1-ol] + CCCCCCn1cc[n+](C)c1.F[B-](F)(F)F were 1.86 ± 0.19 and 1.63 ± 0.17.
Taken in the same sequence, the figures for `CCCO` [propan-1-ol] + CCCCn1cc[n+](C)c1.F[B-](F)(F)F were 2.64 ± 0.28 and 2.28 ± 0.24.
Taken in the same sequence, the figures for `CCCO` [propan-1-ol] + CCn1cc[n+](C)c1.F[B-](F)(F)F were 0.95 and 0.87.
Regarding `CC(C)O` [propan-2-ol] + CCCCCCCC[n+]1ccn(C)c1.F[B-](F)(F)F, the activity coefficient is, setting by setting: (323 K) 1.41 ± 0.15; (343 K) 1.27 ± 0.13.
Taken in the same sequence, the figures for `CC(C)O` [propan-2-ol] + CCCCCCn1cc[n+](C)c1.F[B-](F)(F)F were 1.61 ± 0.17 and 1.57 ± 0.16.
As for `CC(C)O` [propan-2-ol] + CCCCn1cc[n+](C)c1.F[B-](F)(F)F, the activity coefficient by setting is: (323 K) 2.47 ± 0.11; (343 K) 2.17 ± 0.1.
As to `CC(C)O` [propan-2-ol] + CCn1cc[n+](C)c1.F[B-](F)(F)F, the activity coefficient is, setting by setting: (323 K) 1.05 ± 0.11; (343 K) 1.01 ± 0.1.
Taken in the same sequence, the figures for `ClC(Cl)(Cl)Cl` [tetrachloromethane] + CCCCCCCC[n+]1ccn(C)c1.F[B-](F)(F)F were 2.39 ± 0.25 and 2.62 ± 0.28.
Taken in the same sequence, the figures for `ClC(Cl)(Cl)Cl` [tetrachloromethane] + CCCCCCn1cc[n+](C)c1.F[B-](F)(F)F were 3.3 ± 0.35 and 3.61 ± 0.38.
Taken in the same sequence, the figures for `ClC(Cl)(Cl)Cl` [tetrachloromethane] + CCCCn1cc[n+](C)c1.F[B-](F)(F)F were 5.5 ± 0.58 and 5.73 ± 0.6.
For `Cc1ccccc1` [toluene] + CCCCCCCC[n+]1ccn(C)c1.F[B-](F)(F)F, the activity coefficient reads like this: (323 K) 1.75 ± 0.18; (343 K) 1.82 ± 0.19.
Turning to `Cc1ccccc1` [toluene] + CCCCCCn1cc[n+](C)c1.F[B-](F)(F)F, the activity coefficient (343 K) turned out to be 2.61 ± 0.27.
For `Cc1ccccc1` [toluene] + CCCCn1cc[n+](C)c1.F[B-](F)(F)F, the activity coefficient turned out to be 4.14 ± 0.44 (323 K) and 4.13 ± 0.43 (343 K).
As to `Cc1ccccc1` [toluene] + CCn1cc[n+](C)c1.F[B-](F)(F)F, for the setting “343 K”, the activity coefficient amounted to 4.03 ± 0.42.
Regarding `ClC=C(Cl)Cl` [trichloroethene] + CCCCCCCC[n+]1ccn(C)c1.F[B-](F)(F)F, the activity coefficient was 1.67 ± 0.17 (323 K) and 1.76 ± 0.18 (343 K).
Turning to `ClC=C(Cl)Cl` [trichloroethene] + CCCCCCn1cc[n+](C)c1.F[B-](F)(F)F, where the note is “343 K”, the activity coefficient was 2.53 ± 0.27.
Turning to `ClC=C(Cl)Cl` [trichloroethene] + CCCCn1cc[n+](C)c1.F[B-](F)(F)F, the activity coefficient (323 K) stood at 3.98 ± 0.42 and the activity coefficient (343 K) turned out to be 4.32 ± 0.45.
Taken in the same sequence, the figures for `ClC=C(Cl)Cl` [trichloroethene] + CCn1cc[n+](C)c1.F[B-](F)(F)F were 3.66 ± 0.38 and 3.79 ± 0.4.
Consider `ClC(Cl)Cl` [trichloromethane] + CCCCCCCC[n+]1ccn(C)c1.F[B-](F)(F)F, for which the activity coefficient by setting is: (323 K) 0.62 ± 0.07; (343 K) 0.7 ± 0.07.
Taken in the same sequence, the figures for `ClC(Cl)Cl` [trichloromethane] + CCCCCCn1cc[n+](C)c1.F[B-](F)(F)F were 0.81 ± 0.08 and 0.92 ± 0.09.
Taken in the same sequence, the figures for `ClC(Cl)Cl` [trichloromethane] + CCCCn1cc[n+](C)c1.F[B-](F)(F)F were 1.13 ± 0.12 and 1.29 ± 0.13.
Taken in the same sequence, the figures for `ClC(Cl)Cl` [trichloromethane] + CCn1cc[n+](C)c1.F[B-](F)(F)F were 0.73 ± 0.08 and 0.84 ± 0.09.
